Source: ChEMBL document CHEMBL1126525, “Synthesis and DNA cleaving properties of hybrid molecules containing propargylic sulfones and minor groove binding lexitropsins” (Bioorg Med Chem Lett, 1993)

Test system: Nucleic Acid
Assay: Compound was evaluated for its binding affinity constant to calf thymus DNA
Type: nucleic-acid assay
Conditions: Bos taurus

Binding affinity [M⁻¹] | Compound
720000 | COC(=O)c1cc(NC(=O)c2cc(NC(=O)c3cc(NC(=O)c4cccc5c(S(=O)(=O)CC#CCO)cccc45)cn3C)cn2C)cn1C
89000 | COC(=O)c1cc(NC(=O)c2cc(NC(=O)c3cc(NC(=O)c4cc(S(=O)(=O)CC#CCO)cc5ccccc45)cn3C)cn2C)cn1C
46000 | O=S(=O)(CC#CCO)c1cccc2ccccc12
